Test results: ChEMBL document CHEMBL3132822, “Novel 1-(1-benzyl-1H-indol-3-yl)-N,N,N-trimethylmethanaminium iodides are competitive antagonists for the human 42 and 7 nicotinic acetylcholine receptors” (Medchemcomm, 2013)

Columns and labels:
Homo sapiens = species on record: Homo sapiens; assay: Selectivity ratio of IC50 for human alpha4beta2 nAChR to IC50 for human alpha7 nAChR
[1] = target: T1, Neuronal acetylcholine receptor subunit alpha-7 (Homo sapiens, UniProt P36544); assay: Antagonist activity at human alpha7 nAChR expressed in rat GH3 cells assessed as (+/-)-epibatidine-induced Ca2+ influx; type: cell-based
[2] = target: T2, Neuronal acetylcholine receptor; alpha4/beta2 (Homo sapiens, UniProt P17787+P43681); assay: Antagonist activity at human alpha4beta2 nAChR expressed in HEK293 cells assessed as (+/-)-epibatidine-induced Ca2+ influx; type: cell-based
[3] = target: T2, Neuronal acetylcholine receptor; alpha4/beta2; assay: Displacement of [3H]imipramine from human alpha4beta2 nAChR; type: protein-complex assay
[4] = target: T2, Neuronal acetylcholine receptor; alpha4/beta2; assay: Displacement of [3H]cytisine from human alpha4beta2 nAChR; type: protein-complex assay
[5] = target: T1, Neuronal acetylcholine receptor subunit alpha-7; assay: Displacement of [3H]imipramine from human alpha7 nAChR
[6] = target: T1, Neuronal acetylcholine receptor subunit alpha-7; assay: Displacement of [3H]MLA from human alpha7 nAChR

T1 sequence (P36544 whole entry): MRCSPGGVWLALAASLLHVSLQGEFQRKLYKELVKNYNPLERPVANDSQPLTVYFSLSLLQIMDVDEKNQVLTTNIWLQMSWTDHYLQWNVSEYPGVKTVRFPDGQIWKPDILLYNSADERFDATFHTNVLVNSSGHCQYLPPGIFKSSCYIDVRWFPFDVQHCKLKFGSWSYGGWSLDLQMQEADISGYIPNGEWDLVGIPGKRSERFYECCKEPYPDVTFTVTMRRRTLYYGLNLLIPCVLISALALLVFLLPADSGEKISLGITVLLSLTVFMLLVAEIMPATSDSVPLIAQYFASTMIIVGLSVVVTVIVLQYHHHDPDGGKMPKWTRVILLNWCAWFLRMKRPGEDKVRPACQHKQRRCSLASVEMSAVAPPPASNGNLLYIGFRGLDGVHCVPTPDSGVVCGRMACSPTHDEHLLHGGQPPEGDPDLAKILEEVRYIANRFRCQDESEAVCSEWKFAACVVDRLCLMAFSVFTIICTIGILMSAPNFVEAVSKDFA
T2 sequence (P17787 whole entry): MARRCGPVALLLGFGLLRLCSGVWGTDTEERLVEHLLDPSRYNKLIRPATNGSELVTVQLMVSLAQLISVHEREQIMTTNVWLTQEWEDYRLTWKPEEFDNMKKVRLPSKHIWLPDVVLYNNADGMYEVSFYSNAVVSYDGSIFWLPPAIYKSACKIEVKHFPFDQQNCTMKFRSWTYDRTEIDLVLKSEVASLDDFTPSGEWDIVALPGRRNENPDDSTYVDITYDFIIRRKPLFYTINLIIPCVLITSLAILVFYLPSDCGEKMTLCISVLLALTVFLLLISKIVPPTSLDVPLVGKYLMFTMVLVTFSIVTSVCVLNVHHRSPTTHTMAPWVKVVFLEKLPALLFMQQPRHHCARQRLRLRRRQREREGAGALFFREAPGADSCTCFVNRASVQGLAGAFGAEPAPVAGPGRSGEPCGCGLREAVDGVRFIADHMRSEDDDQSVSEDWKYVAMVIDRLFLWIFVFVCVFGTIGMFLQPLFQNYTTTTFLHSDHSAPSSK
T2 sequence (P43681 whole entry): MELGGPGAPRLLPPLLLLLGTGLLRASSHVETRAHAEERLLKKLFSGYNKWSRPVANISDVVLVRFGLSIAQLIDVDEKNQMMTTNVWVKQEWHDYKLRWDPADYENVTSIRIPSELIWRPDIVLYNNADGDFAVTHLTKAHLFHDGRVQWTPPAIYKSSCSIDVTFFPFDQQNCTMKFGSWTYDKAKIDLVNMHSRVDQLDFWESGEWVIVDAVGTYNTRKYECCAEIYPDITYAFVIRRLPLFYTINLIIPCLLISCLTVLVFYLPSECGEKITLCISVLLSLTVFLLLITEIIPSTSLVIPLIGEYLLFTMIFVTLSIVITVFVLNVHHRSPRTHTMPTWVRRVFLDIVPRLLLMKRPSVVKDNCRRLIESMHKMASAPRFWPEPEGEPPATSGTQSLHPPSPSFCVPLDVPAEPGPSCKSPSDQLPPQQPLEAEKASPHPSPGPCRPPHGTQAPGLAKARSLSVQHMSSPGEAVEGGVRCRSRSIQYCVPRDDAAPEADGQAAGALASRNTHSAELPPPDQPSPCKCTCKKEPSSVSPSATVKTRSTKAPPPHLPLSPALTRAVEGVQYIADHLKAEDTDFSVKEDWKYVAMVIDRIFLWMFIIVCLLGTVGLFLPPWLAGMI

| SMILES | Ratio IC50 (Homo sapiens) | IC50 [1] [µM] | IC50 [2] [µM] | Ki [3] [µM] | Ki [4] [µM] | Ki [5] [µM] | Ki [6] [µM] |
| --- | --- | --- | --- | --- | --- | --- | --- |
| C[N+](C)(C)Cc1cn(Cc2ccc([N+](C)(C)C)cc2)c2ccccc12 | 7.4 | 2.7 | 20 |  |  |  |  |
| COc1ccc(Cn2cc(C[N+](C)(C)C)c3ccccc32)cc1 | 2.2 | 2 | 4.4 |  |  |  |  |
| COc1ccc(Cn2cc(C[N+](C)(C)C)c3ccccc32)cc1O | 2.8 | 3.4 | 9.5 |  |  |  |  |
| C[N+](C)(C)Cc1cn(Cc2ccc3c(c2)OCO3)c2ccccc12 | 3 | 1.3 | 3.9 |  |  |  |  |
| C[N+](C)(C)Cc1cn(Cc2cccc(O)c2)c2ccccc12 | 14.7 | 1 | 14.7 | 112 | 1.6 | 145 | 0.6 |
| C[N+](C)(C)Cc1cn(Cc2ccc(O)cc2)c2ccccc12 | 11.3 | 2.2 | 24.9 |  | 0.6 |  | 2.9 |
| C[n+]1cccc(Cn2cc(C[N+](C)(C)C)c3ccccc32)c1 |  | 41.3 | > 100 |  |  |  |  |
| C[N+](C)(C)Cc1cn(Cc2ccccc2)c2ccccc12 | 1.9 | 2.3 | 4.2 |  |  |  |  |
| COc1ccc(Cn2cc(C[N+](C)(C)C)c3ccccc32)cc1OC | 6.7 | 2.2 | 14.8 |  |  |  |  |
| COc1cc(Cn2cc(C[N+](C)(C)C)c3ccccc32)ccc1O | 4.1 | 2.2 | 9.1 |  |  |  |  |
